Assay results as given in patent publication US20250346634A1, “CYCLIC PEPTIDES FOR TARGETING EPIDERMAL GROWTH FACTOR RECEPTOR AND MUTATIONS THEREOF FOR DRUG DELIVERY” (priority 2022, published 2025).
Bridge positions count the residues as written; N and C are the ends. Peptide text beside a SMILES is read from it. * marks the point of attachment. FITC = O=C1OC2(c3ccc(O)cc3Oc3cc(O)ccc32)c2ccc(NC(=S)*)cc21; GABA = NCCCC(=O)O

How the values were obtained:
[1] = system: EGFR+ve cells (H1299, DKMG) versus K562 cells; experiment: Flow cytometry internalization of peptide-FITC conjugates; type: cell-based; details: 2.5 μM FITC-labeled peptide
From the text: Analysis was done with FACS cell analyzer.

[2] = system: high-EGFR-expressing MDA-435 cells; experiment: Target specificity by flow cytometry, MDA-435; type: cell-based; details: FITC-labeled peptides
Description: (§1) Cells with 80-90% confluence were incubated with 2.5 μM FITC-conjugated peptides in RPMI-5% FBS for 1 h at 37° C. Cells were scrapped from the culture flask and washed twice with 2 ml FCSB. Cells were analyzed as previously described Internalization of peptide-FITC conjugates.
(§2) Cells were cultured overnight in 6-well plates under 80-90% confluence, the medium was replaced with 1 ml of the fresh medium with 5% FBS that contained 2.5 μM FITC-conjugated peptides. The plates were incubated for 1, 2, or 3 h at 37° C. After incubation, the cells were collected with trypsin, washed twice with FCSB, and resuspended in 200 μl of FCSB. Analysis was done with FACS cell analyzer.
(§3) Targeting specificity of FITC-labeled P4-P6, P8, and P9 peptides was investigated on three cell lines, which were not used in biopanning: kidney HEK-293 and breast MCF-10A normal cells, and breast cancer MDA-435 cells. To verify EGFR WT expression on these cell lines, the inventors stained the cells with APC-labeled monoclonal anti-human EGFR antibody followed by a flow cytometry analysis.
(§4) The interaction of the FITC labeled P4 P6, P8, and P9 with these cell lines was analyzed by flow cytometry.

H1299 cells = experiment: Confocal microscopy, H1299; type: cell-based; details: 25 μM
Description: (§5) H1299, DKMG and HEK-293 cells were seeded in 12-well glass bottom black plates in concentrations of 5.0×10^4, 1.0×10^5, and 2.5×10^4 cells/well, respectively. The cells were cultured in complete growth medium at 37° C. under 5% CO2 for 24 h. After incubation, the medium was removed, the cells were twice washed with PBS Ca^2+Mg^2+, and new fresh medium (0.5 ml) contained 25 μM of FITC labeled P6 or P9 peptides was added. The stained cells were incubated at 37° C. under 5% CO2 for 0 h and 3 h, washed twice with PBS, and stained with Hoechst 33258 ([…], 0.5 ml, 37° C., 5% CO2) for 10 min. The cells were twice washed with PBS and fixed with 4% paraformaldehyde (PFA). Fluorescence images were then recorded at the magnification of ×200 with a Zeiss LSM700 confocal laser microscope.
(§6) To get additional confirmation data on the specificity of the FITC labeled P6 and P9 peptides towards EGFR H1299 lung cancer and […] DKMG glioblastoma cell lines compared to EGFR−ve HEK-293 normal cells, the inventors employed confocal scanning microscopy. The cells were incubated with 25 μM FITC-labeled P6 and P9, the cell nuclear were stained with […], the cells were fixed with 4% paraformaldehyde, and captured immediately after addition and 3 h later. […] A clear correlation of the green FITC signal with the cell type was established.

DKMG cells = experiment: Confocal microscopy, DKMG; type: cell-based; details: 25 μM; for green FITC signal: after 3 hours; for fluorescence intensity: time zero
Description: as §5, §6

HEK-293 cells = experiment: Confocal microscopy, HEK-293; type: cell-based; details: 25 μM, after 3 hours
Description: as §5, §6

[3] = system: H1299, DKMG and K562 cells; experiment: Flow cytometry binding of peptide-FITC conjugates; type: cell-based; details: 2.5 μM FITC-labeled peptide
From the text: This concentration was chosen based on preliminary dose dependence study.

[4] = system: DKMG cells line expressing both EGFR+ve and EGFRvIII mutation; details: 2.5 μM FITC-labeled peptide
Description: as §2

MCF-10A cells = details: FITC-labeled peptides, flow cytometry
Description: as §1, §2, §3, §4

Row | Compound | internalization (flow cytometry) [1] | internalization into MDA-435 cells [2] | green FITC signal (H1299 cells; after 3 hours) | fluorescence intensity (H1299 cells; time zero) | green FITC signal (DKMG cells) | fluorescence intensity (DKMG cells) | green FITC signal (HEK-293 cells) | binding (flow cytometry) [3] | internalization activity to DKMG [4] | binding to MDA-435 cells [2] | binding to MCF-10A cells (MCF-10A cells)
1 | CC[C@H](C)[C@@H]1NC(=O)[C@H](Cc2ccc(O)cc2)NC(=O)[C@H](CO)NC(=O)CNC(=O)[C@@H]2CCCN2C(=O)[C@H](C(C)C)NC(=O)[C@H](Cc2cnc[nH]2)NC(=O)[C@@H](NC(=O)CCCNC(=S)Nc2ccc3c(c2)C(=O)OC32c3ccc(O)cc3Oc3cc(O)ccc32)CSSC[C@@H](C(N)=O)NC1=O [FITC-labeled P6] ({FITC-GABA}-CHVPGSYIC-NH2; disulfide 1-9) | internalized only into to EGFR+ve cells | pronounced internalization | strong signal | not detectable | strong signal | not detectable | low-intensive signal |  |  |  | 
2 | CSCC[C@@H]1NC(=O)[C@H](C)NC(=O)[C@H](CC(N)=O)NC(=O)[C@H](C(C)C)NC(=O)[C@@H](NC(=O)CCCNC(=S)Nc2ccc3c(c2)C(=O)OC32c3ccc(O)cc3Oc3cc(O)ccc32)CSSC[C@@H](C(N)=O)NC(=O)[C@H](Cc2ccc(O)cc2)NC(=O)[C@H](CO)NC(=O)[C@H](CCC(N)=O)NC1=O [FITC-labeled P9] ({FITC-GABA}-CVNAMQSYC-NH2; disulfide 1-9) | internalized only into to EGFR+ve cells | pronounced internalization |  |  | significantly increased after 3 hours | pronounced emission |  | bind to H1299 and DKMG selectively but not to K562 cells | higher internalization activity |  | 
3 | CC(C)C[C@@H]1NC(=O)[C@H](C)NC(=O)[C@H](CO)NC(=O)[C@@H](NC(=O)CCCNC(=S)Nc2ccc3c(c2)C(=O)OC32c3ccc(O)cc3Oc3cc(O)ccc32)CSSC[C@@H](C(N)=O)NC(=O)[C@H](Cc2cnc[nH]2)NC(=O)[C@H](CO)NC(=O)[C@H](C)NC(=O)[C@H](Cc2c[nH]c3ccccc23)NC1=O [FITC-labeled P8] ({FITC-GABA}-CSALWASHC-NH2; disulfide 1-9) | internalized only into to EGFR+ve cells |  |  |  |  |  |  | bind to H1299 and DKMG selectively but not to K562 cells |  | noticeable binding | noticeable binding
